Patent US11771086B2, “Pest control composition including novel iminopyridine derivative” (priority 2012, dated 2023)

Columns and labels:
Type in all cases: in vivo
[1] = test system: Spodoptera litura; assay: whole plant or invertebrate; settings: Spodoptera litura
Description: After an air drying process, third instar larvae were released thereto. […] The test was performed in duplicate.
(§1) Method for Judging Synergistic Effects

[2] = test system: Aphis gossypii; assay: whole plant or invertebrate; settings: Aphis gossypii
Description: The test was performed in duplicate.
as §1

[3] = test system: Nilaparvata lugens susceptible species (highly susceptible to imidacloprid); assay: Reference Test Example 19 Pest control test of Nilaparvata lugens, imidacloprid susceptible species (soil drench); settings: for Insecticidal effects against Nilaparvata lugens (death rate %), Susceptible population: soil drench, six days
Description: (§2) Three days after the treatment, ten second instar larvae of Nilaparvata lugens, which had been collected outdoors and proliferated indoors, were each released to the rice seedling. […] Test in duplicate.
(§3) Furthermore, for comparison, the test against a species of Nilaparvata lugens which is highly susceptible to imidacloprid was performed by the same method as described above, and the results thereof are shown in Table 45. […] Meanwhile, the death rates of imidacloprid at 0.05 mg/seedling were (susceptible species) 100%, (resistant population I) 38% and (resistant population II) 69%, and the insecticidal effect thereof was also low even at a high dose. From the above results, it became obvious that Compound P212 and Compound 1-20 have high insecticidal effects even against Nilaparvata lugens resistance against imidacloprid.
(§4) Further, for the origin of test pests, bugs collected outdoors from the Kumamoto prefecture (I) in 2007 and from the Fukuoka prefecture (II) in 2005 as resistant population of Nilaparvata lugens, and bugs collected from the Kagoshima prefecture and then successively reared indoors for a long time as the imidacloprid susceptible population of Nilaparvata lugens were used.

[4] = test system: Sogatella furcifera; assay: Reference Test Example 6 Pest control test of Sogatella furcifera (foliar treatment, single agent); settings: 96 h
Source text: (§5) After an air drying process, second instar larvae were released thereto. […] Test in duplicate.

[5] = test system: Nilaparvata lugens resistant population II; assay: Reference Test Example 19 Pest control test of Nilaparvata lugens, resistant population II (soil drench); settings: for Insecticidal effects against Nilaparvata lugens (death rate %), Resistant population II: soil drench, six days
Description: as §2, §3, §4

[6] = test system: Trialeurodes vaporariorum; assay: Reference Test Example 8 Pest control test of Trialeurodes vaporariorum (leaf disk spray on eggs); settings: foliar
Source text: Adult greenhouse whiteflies were released to a cucumber in pot culture and allowed to lay eggs overnight. […] Test in duplicate. Mortality of larvae (%)={(number of eggs laid−number of survived larvae)/number of eggs laid)}×100

[7] = test system: Plautia crossota stali; assay: Reference Test Example 11 Pest control test of Plautia crossota stali (sprayed young apple fruit); settings: foliar, 144 h
Source text: After an air drying process, the young fruit was placed into a plastic cup, and two adults of Plautia crossota stali were released thereto. […] Mortality of adults (%)={number of dead adults/(number of survived adults+number of dead adults)}×100

[8] = test system: Plutella xylostella; assay: Reference Test Example 1 Pest control test of Plutella xylostella (foliar treatment, single agent); settings: Plutella xylostella, foliar, 72 h
Source text: as §5

O=C(N=c1ccccn1Cc1ccc(Cl)nc1)C(F)(F)F [Compound P212, N-[1-((6-chloropyridin-3-yl)methyl)pyridin-2(1H)-ylidene]-2,2,2-trifluoroacetamide]
mortality at 50 ppm ([1]; foliar, 72 h, read-out: Mortality of single agent against Spodoptera litura, single agent 50 ppm, cabbage leaf disk spray, three days): 10% | Theoretical value by Colby's equation ([1]; single agent 50 ppm (other component 0)): 10% | mortality at 0.313 ppm ([2]; foliar, 72 h, read-out: Mortality of single agent against Aphis gossypii): 45% | Theoretical value by Colby's equation ([2]; single agent 0.313 ppm (other component 0)): 45% | death rates of larvae ([3]; susceptible species, 0.005 mg/seedling, six days after the release): 100% | Insecticidal effects against Nilaparvata lugens (death rate %), Susceptible population ([3]; throughput 0.005 mg/seedling): 100% | Insecticidal effects against Nilaparvata lugens (death rate %), Susceptible population ([3]; throughput 0.05 mg/seedling): 100% | mortality at 100 ppm [4]: ≥ 80% | death rates of larvae ([5]; resistant population II, 0.005 mg/seedling, six days after the release): 100% | Insecticidal effects against Nilaparvata lugens (death rate %), Resistant population II ([5]; throughput 0.005 mg/seedling): 100% | Insecticidal effects against Nilaparvata lugens (death rate %), Resistant population II ([5]; throughput 0.05 mg/seedling): 100% | mortality at 100 ppm [6]: ≥ 80% | mortality at 50 ppm [7]: ≥ 60% | mortality at 100 ppm [8]: ≥ 80%
